Tests used:
Assay in all cases: relative viability (nuclei count vs DMSO), 5 days (fraction); higher = more cells survive
[1] = compound: C[C@@H](C(=O)N[C@@H](C1CCCCC1)C(=O)N2CCC[C@H]2C(=O)N[C@@H]3[C@@H](CC4=CC=CC=C34)OCC#CC#CCO[C@@H]5CC6=CC=CC=C6[C@@H]5NC(=O)[C@@H]7CCCN7C(=O)[C@H](C8CCCCC8)NC(=O)[C@H](C)NC)NC [AZD5582]
Procedure, shortened: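 Hoechst staining, done together with fixation and permeabilisation, marked nuclei for 4× imaging and MetaXpress counting. This followed 5 days without medium change after lung cancer cell lines, kept overnight at 37 °C in 1536-well plates, were pinned with five library-drug doses (not always all listed) spaced by √10 on vehicle-anchored plates. Viability is the ratio of treated-well to vehicle-well nuclei, expressed as a median across plates. Plates passed only at control CV below 25% with at least one doubling.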

[2] = compound: C[C@@H](C(=O)N[C@@H](C1CCCCC1)C(=O)N2CCC[C@H]2C(=O)N[C@@H]3[C@@H](CC4=CC=CC=C34)OCC#CC#CCO[C@@H]5CC6=CC=CC=C6[C@@H]5NC(=O)[C@@H]7CCCN7C(=O)[C@H](C8CCCCC8)NC(=O)[C@H](C)NC)NC [AZD5582] + CC(C)C[C@H](NC(=O)[C@H](Cc1ccccc1)NC(=O)c1cnccn1)B(O)O [Bortezomib] (partner 0.002 µM)
Procedure, shortened: (§1)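 Relative viability divides the nuclei count in treated wells by that in vehicle wells. Lung cancer cell lines were seeded in 1536-well plates, dosed by pin tool the next day, and fixed and stained after 5 days in one step with final 0.05% Triton X-100, 1% formaldehyde and 1 ug/ml Hoechst. Dosing was a single drug or a fixed anchor-drug dose plus five library-drug doses (not always all listed) in √10 steps, and values are medians of duplicate plates imaged at 4×.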

[3] = compound: C[C@@H](C(=O)N[C@@H](C1CCCCC1)C(=O)N2CCC[C@H]2C(=O)N[C@@H]3[C@@H](CC4=CC=CC=C34)OCC#CC#CCO[C@@H]5CC6=CC=CC=C6[C@@H]5NC(=O)[C@@H]7CCCN7C(=O)[C@H](C8CCCCC8)NC(=O)[C@H](C)NC)NC [AZD5582] + Nc1nc2[nH]cc(CCc3ccc(C(=O)N[C@@H](CCC(=O)O)C(=O)O)cc3)c2c(=O)[nH]1 [Pemetrexed] (partner 0.2 µM)
Procedure, shortened: as §1

[4] = compound: Cn1nnc2c(C(N)=O)ncn2c1=O [Temozolomide] + N=C(N)NC(=N)NCCc1ccccc1 [Phenformin] (partner 250 µM)
Procedure, shortened: as §1

Cell Line	relative viability ([1]; 0.001581 µM)	relative viability ([1]; 0.005 µM)	relative viability ([1]; 0.01581 µM)	relative viability ([1]; 0.05 µM)	relative viability ([2]; first compound 0.001581 µM)	relative viability ([2]; first compound 0.005 µM)	relative viability ([2]; first compound 0.01581 µM)	relative viability ([2]; first compound 0.05 µM)	relative viability ([3]; first compound 0.001581 µM)	relative viability ([3]; first compound 0.005 µM)	relative viability ([3]; first compound 0.01581 µM)	relative viability ([3]; first compound 0.05 µM)	relative viability ([4]; first compound 0.2 µM)	relative viability ([4]; first compound 0.6325 µM)	relative viability ([4]; first compound 2 µM)	relative viability ([4]; first compound 6.325 µM)	relative viability ([4]; first compound 20 µM)
HCC-366	0.978	1.02	0.978	1.08	0.982	1.1	1.01	1.19	0.119	0.155	0.15	0.152	0.639	0.647	0.631	0.621	0.62
HCC-827	1.03	1.07	0.991	0.993	0.974	1.05	0.901	1.07	0.272	0.273	0.283	0.205	0.248	0.443	0.397	0.41	0.131
HOP-62	0.875	1.03	1.04	1.06	0.652	0.527	0.691	0.566	0.262	0.312	0.345	0.371	0.939	0.642	0.818	0.657	0.717
IA-LM	0.77	0.86	0.828	0.897	0.704	0.679	0.829	0.74									
LC-2-ad	0.997	1.09	0.965	1.03	1.05	1.14	0.938	1.04	0.283	0.272	0.28	0.278	0.609	0.651	0.584	0.601	0.46
LCLC-97TM1	0.797	1.06	0.644	0.525	0.542	0.531	0.455	0.298	0.185	0.205	0.16	0.16	0.427	0.487	0.492	0.418	0.412
LCLC-103H	1.02	1.14	0.852	1.01	0.972	1.14	0.958	1	0.386	0.426	0.443	0.352	0.36	0.365	0.359	0.31	0.322
LK-2	0.766	1.07	0.876	1.23					0.199	0.25		0.256	0.502	0.568	0.455	0.179	0.194
LOU-NH91	0.924	0.944	0.882	0.925	0.45	0.509	0.489	0.443	0.341	0.367	0.367	0.408	0.612	0.74	0.711	0.788	0.476
NCI-H358	0.915	1.17	0.944	0.972					0.178	0.171	0.179	0.17	0.21	0.425	0.367	0.296	0.257
NCI-H522	0.841	1	0.957	0.795					0.989	1.13	0.976	0.823	0.653	0.664	0.728	0.626	0.629
NCI-H727	1.02	1.01	0.858	0.979	0.761	0.932	0.851	1.04					0.653	0.659	0.572	0.462	0.544
NCI-H1299	1	1.02	1	0.991	1.01	1.08	1.04	0.99									
NCI-H1395	0.866	1		0.988					0.852	0.964		1.13	0.458	0.428	0.494	0.435	0.461
NCI-H1623	1.03	1.08	0.995	0.95										0.646	0.521	0.563	0.309
NCI-H1648	0.607	0.894	0.554	0.824					0.654	0.738		0.708					
NCI-H1793	0.897	1.05	0.822	0.797					0.787	1.21	0.624	1.07		0.359	0.394	0.297	0.323
NCI-H1944	0.867	1.04	0.921	1.01					0.455	0.556	0.521	0.62	0.219	0.183	0.233	0.19	0.2
NCI-H2170	0.956	0.985	0.987	0.989					0.26	0.249	0.268	0.269		0.422	0.448	0.349	0.327
NCI-H2342	0.938	1.01	0.917	1.07					0.79	0.747	0.756	0.791	0.57	0.629	0.625	0.662	0.563
SK-MES-1	0.943	1.15	0.972	1.09					0.904	1.01	0.975	0.939	0.752	0.68	0.7	0.729	0.682
SW 900	0.628	0.851	0.684	0.466					0.366	0.466	0.486	0.435	0.754	0.671	0.556	0.464	0.718

Source: the supplement of paper PMC10307832
